Patent publication US12138322B2, “Method of preventing the development of melanoma” (Vector Vitale IP LLC, priority 2019, dated 2024)
“And” between values parts separate entries of the source, which are not always exact repeats. Equal values may be shown once. “Also recorded” adds a separate entry of the source. Marks after values point to notes of the source that are not given here.

Legend:
B16 melanoma = B16 melanoma tumor growth and survival in mice, intratumoral administration; type: in vivo, C57Bl/J6 mice; design: key to presence or absence of tumor, individual animals: Tumor−: absence of tumor growth; Tumor+: presence of tumor; key to tumor volume, individual animals: tumor volume in mm^3, ellipsoid V = 4/3×π×a×b×c from radii; details: for size of melanoma reduced compared to control: drug administered on the 11th day after inoculation; for tumor volume, individual animals: group 2, individual regimens
Method: B16 melanoma cells having the following characteristic were used in the experiment: • Origin: Mus musculus skin (C57BL/6 mouse) • Characteristics of tumor growth: short incubation period, rapid growth, absence of spontaneous metastases. • Tumor inoculability is 100%. The minimum dose of cells that causes tumor growth for this melanoma is only 100 to 1000 per subcutaneous injection in the mouse.
15 female C57Bl/J6 mice (5 mice per group) at the age of 10-12 weeks, weighing 18-22 g were used in the experiment.
B16 melanoma cells were cultured in vitro under standard conditions. For transplantation, tumor cells in the exponential phase were removed from the substrate with 0.02% Versene solution and the suspension cellularity and viability was evaluated in the presence of trypan blue in a hemocytometer and the suspension was adjusted to a concentration of 10^7 cells/ml by dilution with saline solution. Melanoma cells were injected intracutaneously (i.e.) in 0.05 ml of the suspension (0.5×10^6 cells/mouse) into the animal's back region. 24 hours before the injection of tumor cells, the wool cover on the back of each mouse was removed with depilation cream.
Grouping. The animals were divided into groups as follows: • Group No. 1: control group, mice injected i.e. with B16 melanoma cells; • Group No. 2: mice injected i.e. with B16 melanoma cells+intratumoral injections of ^64Zne(Asp)2 at day 5 after the tumor cells were inoculated. • Group No. 3: mice injected i.e. with B16 melanoma cells+intratumoral injections of ^64Zne(Asp)2 at day 11 after the tumor cells were inoculated
The composition to be administered was prepared immediately prior to its administration. ^64Zne(Asp)2 was dissolved in deuterium-depleted water with addition of 1% DMSO. Animals in group No. 2 were injected with the composition comprising ^64Zne(Asp)2 intratumorally and around the area of tumor growth at a dose of 200 μg/mouse in a volume of 20 μl/mouse after the tumor reached 0.5 cm in diameter (at day 5 after i.e. administration of the tumor cells).
Animals in group No. 3 were injected with the composition comprising ^64Zne(Asp)2 intratumorally and around the area of tumor growth at a dose of 300 μg/mouse in a volume of 30 μl/mouse at day 11 after i.e. administration of the tumor cells. […] 24 hours after the first injection and then a series of injections were given every other day. ^64Zne(Asp)2 was administered intratumorally every other day for 10 days, 5 times in total.
Regarding the 3rd group: group 3 mice received 300 mcg/mouse of ^64Zne in the form of ^4Zne aspartate on the 11th day and 200 mcg/mouse of ^4Zne aspartate on the 13th, 15th, 17th and 19th days after tumor cell injection.
The anti-tumor efficacy of ^64Zne(Asp)2 was evaluated on the basis of the growth dynamics of melanoma tumors estimated based on the changes in tumor volume according to generally accepted rules.
From the time the experimental tumors reached 0.3-0.5 cm in diameter and every 2-3 days thereafter, the size of each tumor node in experimental animals was measured in three orthogonal planes (width×length×height (W×L×H)) and the tumor volume was calculated by use of the following formula for the volume of ellipsoid: V= 4/3×πabc; where V is the tumor volume (mm^3); a, b, c is the rumor radius (mm): a is the radius along the x axis, b is the radius along the y axis, c is the radius along the z axis.

melanoma = assay: Simultaneous intratumoral and intravenous administration (data not shown); type: in vivo
Method: A possibility of simultaneous intratumoral and intravenous administration of the composition comprising 64Zne(Asp)2 was assessed in additional experiments (data not shown).

## N[C@@H](CC(=O)[O-])C(=O)[O-].[Zn+2] [^64Zne(Asp)2, Zinc L-aspartate]
B16 melanoma; 21st day
  size of melanoma reduced compared to control: 85%
B16 melanoma; 24th day
  size of melanoma reduced compared to control: 75.6%
B16 melanoma; 4 day after tumor cell inoculation (before 1st injection)
  tumor volume, individual animals: 14.1 and 33.5 and 24.4 (2×) and 25
B16 melanoma; 6 day
  tumor volume, individual animals: 14.1 (3×) and 33.5 and 65.4
B16 melanoma; 10 day
  tumor volume, individual animals: 24.4 (2×) and 14 (2×) and 51
B16 melanoma; 12 day
  tumor volume, individual animals: 24.4 and 14 (3×) and 116.4
B16 melanoma; 13 day, group 2
  local finding at tumor site, individual animal: Eschar
  presence or absence of tumor, individual animals: Tumor +/
B16 melanoma; 14 day
  tumor volume, individual animals: 14 (2×) and 4.2 and 38.4 and 9.2
B16 melanoma; 17 day
  tumor volume, individual animals: 4.2 (3×) and 65.4 and 14
B16 melanoma; 18 day, group 2
  presence or absence of tumor, individual animals: Tumor +/
B16 melanoma; 21 day
  tumor volume, individual animals: 0 (3×) and 179.6 and 33.5
B16 melanoma; 22 day, group 2
  presence or absence of tumor, individual animals: Tumor +/
B16 melanoma; 24 day
  tumor volume, individual animals: 25.4 and 0 (2×) and 282.7 and 33.5
B16 melanoma; 25 day, group 2
  Tumor necrosis, individual animal: necrosis
  presence or absence of tumor, individual animals: Tumor +/
B16 melanoma; 28 day, group 2
  death of individual animal: Died*
  presence or absence of tumor, individual animals: Tumor−; also recorded: Tumor +/
B16 melanoma; 28 day
  tumor volume, individual animals: 33.2 and 0 (2×) and 641 and 102.6
B16 melanoma; 36 day, group 2
  presence or absence of tumor, individual animals: Tumor +/; also recorded: Tumor−
B16 melanoma; 39 day, group 2
  Tumor necrosis, individual animal: necrosis
  presence or absence of tumor, individual animals: Tumor+; also recorded: Tumor−; also recorded: Tumor +/
B16 melanoma; 43 day, group 2
  death of individual animal: Died*
  presence or absence of tumor, individual animals: Tumor+; also recorded: Tumor−
B16 melanoma; 55 day, group 2
  presence or absence of tumor, individual animals: Tumor−
B16 melanoma; 58 day, group 2
  Tumor necrosis, individual animal: necrosis
  presence or absence of tumor, individual animals: Tumor +/; also recorded: Tumor−
B16 melanoma; 61 day, group 2
  death of individual animal: Died*
  presence or absence of tumor, individual animals: Tumor−
B16 melanoma; day 4 after inoculation (before first injection), group 2: intratumoral 200 μg/mouse at day 5
  Tumor volume (M ± m): 24.3 mm^3
B16 melanoma; day 4 after inoculation (before first injection), group 3: intratumoral 300 μg/mouse at day 11, then 200 μg/mouse
  Tumor volume (M ± m): 27 mm^3
B16 melanoma; day 4 after inoculation, group 2: intratumoral at day 5, 5 animals per group
  Number of alive mice: 100%
B16 melanoma; day 4 after inoculation, group 3: intratumoral at day 11, 5 animals per group
  Number of alive mice: 100%
B16 melanoma; day 6, group 2: intratumoral at day 5
  Number of alive mice: 100%
B16 melanoma; day 6, group 3: intratumoral at day 11
  Number of alive mice: 100%
B16 melanoma; day 6 after inoculation (before first injection), group 3: intratumoral 300 μg/mouse at day 11, then 200 μg/mouse
  Tumor volume (M ± m): 63 mm^3
B16 melanoma; day 6 after inoculation, group 2: intratumoral 200 μg/mouse at day 5
  Tumor volume (M ± m): 28.2 mm^3
B16 melanoma; day 9, group 2: intratumoral at day 5
  Number of alive mice: 100%
B16 melanoma; day 9, group 3: intratumoral at day 11
  Number of alive mice: 100%
B16 melanoma; day 9 after inoculation (before first injection), group 3: intratumoral 300 μg/mouse at day 11, then 200 μg/mouse
  Tumor volume (M ± m): 119 mm^3
B16 melanoma; day 9 after inoculation, group 2: intratumoral 200 μg/mouse at day 5
  Tumor volume (M ± m): 25.6 mm^3
B16 melanoma; day 12, group 2: intratumoral at day 5
  Number of alive mice: 100%
B16 melanoma; day 12, group 3: intratumoral at day 11
  Number of alive mice: 80^+ %
B16 melanoma; day 12 after inoculation, group 2: intratumoral 200 μg/mouse at day 5
  Tumor volume (M ± m): 36.6 mm^3
B16 melanoma; day 12 after inoculation, group 3: intratumoral 300 μg/mouse at day 11, then 200 μg/mouse
  Tumor volume (M ± m): 260 ± 20 mm^3
B16 melanoma; day 14, group 2: intratumoral at day 5
  Number of alive mice: 100%
B16 melanoma; day 14, group 3: intratumoral at day 11
  Number of alive mice: 80%
B16 melanoma; day 14 after inoculation, group 2: intratumoral 200 μg/mouse at day 5
  Tumor volume (M ± m): 16 ± 6^d mm^3
B16 melanoma; day 14 after inoculation, group 3: intratumoral 300 μg/mouse at day 11, then 200 μg/mouse
  Tumor volume (M ± m): 184 ± 51 mm^3
B16 melanoma; day 17, group 2: intratumoral at day 5
  Number of alive mice: 100%
B16 melanoma; day 17, group 3: intratumoral at day 11
  Number of alive mice: 80%
B16 melanoma; day 17 after inoculation, group 2: intratumoral 200 μg/mouse at day 5
  Tumor volume (M ± m): 18.4 mm^3
B16 melanoma; day 17 after inoculation, group 3: intratumoral 300 μg/mouse at day 11, then 200 μg/mouse
  Tumor volume (M ± m): 250 mm^3
B16 melanoma; day 21, group 2: intratumoral at day 5
  Number of alive mice: 100%
B16 melanoma; day 21, group 3: intratumoral at day 11
  Number of alive mice: 80%
B16 melanoma; day 21 after inoculation, group 2: intratumoral 200 μg/mouse at day 5
  Tumor volume (M ± m): 42.6 mm^3
B16 melanoma; day 21 after inoculation, group 3: intratumoral 300 μg/mouse at day 11, then 200 μg/mouse
  Tumor volume (M ± m): 375.4 mm^3
B16 melanoma; day 24, group 2: intratumoral at day 5
  Number of alive mice: 100%
B16 melanoma; day 24, group 3: intratumoral at day 11
  Number of alive mice: 60* %
B16 melanoma; day 24 after inoculation, group 2: intratumoral 200 μg/mouse at day 5
  Tumor volume (M ± m): 68.3 mm^3
B16 melanoma; day 24 after inoculation, group 3: intratumoral 300 μg/mouse at day 11, then 200 μg/mouse
  Tumor volume (M ± m): 881 mm^3
B16 melanoma; day 27, group 2: intratumoral at day 5
  Number of alive mice: 100%
B16 melanoma; day 27, group 3: intratumoral at day 11
  Number of alive mice: 60%
B16 melanoma; day 27 after inoculation, group 2: intratumoral 200 μg/mouse at day 5
  Tumor volume (M ± m): 155.4 mm^3
B16 melanoma; day 27 after inoculation, group 3: intratumoral 300 μg/mouse at day 11, then 200 μg/mouse
  Tumor volume (M ± m): 2313.5 mm^3
B16 melanoma; day 28, group 2: intratumoral at day 5
  Number of alive mice: 80* %
B16 melanoma; day 28, group 3: intratumoral at day 11
  Number of alive mice: 40%
B16 melanoma; day 31, group 2: intratumoral at day 5
  Number of alive mice: 80%
B16 melanoma; day 31, group 3: intratumoral at day 11
  Number of alive mice: 40%
B16 melanoma; group No. 2, after a single intratumoral injection at day 5
  animals in which growth of melanoma was suppressed by 100%: 2 out of 5
B16 melanoma; intratumoral on the 5th day after inoculation, day of reading not given
  tumor volume as % of the corresponding figure in the control group: 4%
melanoma
  suppression of the metastatic process (tumor size, surviving animals, number of metastases), words: confirmed the efficacy
